# Results from PubChem BioAssay AID220 (DTP/NCI, 2004).
# Where “and” joins values, the source holds several entries; their conditions need not be identical. Equal values may be shown once. Records with an inconclusive call do not appear. Residues, ends and D or L forms follow the SMILES beside them. *: point of attachment. Trt = c1ccc(C(c2ccccc2)(c2ccccc2)*)cc1; Cbz = O=C(OCc1ccccc1)*
# System: CD8F1 mice, subcutaneous mammary adenocarcinoma, T/C%
# Assay: NCI In Vivo Anticancer Drug Screen. Data for tumor model Mammary Adenocarcinoma CD8F1 (subcutaneous) in CD8F1
# Details: higher = larger tumour
# Procedure, shortened: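 Antitumor activity is assessed in transplantable-tumor mice by comparing the treated group with a vehicle-treated control group. Survival or tumor size serves as the measure, reported as T divided by C.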
# [1] = endpoint: median tumor weight change, dose: 125.0 mg/kg/injection, schedule: Q01DX001 (ip), vehicle: saline with Tween-80
# [2] = endpoint: median tumor weight change, dose: 250.0 mg/kg/injection, schedule: Q01DX001 (ip), vehicle: saline with Tween-80
# [3] = endpoint: median tumor weight change, dose: 62.5 mg/kg/injection, schedule: Q01DX001 (ip), vehicle: saline with Tween-80
smiles,measurement,setting,value
CO[C@H]1C[C@@H]2CC[C@@H](C)[C@@](O)(O2)C(=O)C(=O)N2CCCC[C@H]2C(=O)O[C@H]([C@H](C)C[C@@H]2CC[C@@H](O)[C@H](OC)C2)CC(=O)[C@H](C)C=C(C)[C@@H](O)[C@@H](OC)C(=O)[C@H](C)C[C@H](C)/C=C/C=C/C=C1C,T/C,"endpoint: median tumor weight (est.), dose: 3.12 mg/kg/injection, schedule: Q07DX005 (ip), vehicle: clinical formulation",48 % of control
same,T/C,"endpoint: median tumor weight (est.), dose: 3.12 mg/kg/injection, schedule: Q07DX005 (ip), vehicle: saline with Tween-80",54 % of control
same,T/C,"endpoint: median tumor weight (est.), dose: 6.25 mg/kg/injection, schedule: Q07DX005 (ip), vehicle: clinical formulation",58 % of control
same,T/C,"endpoint: median tumor weight (est.), dose: 6.25 mg/kg/injection, schedule: Q07DX005 (ip), vehicle: saline with Tween-80",49 % of control
same,T/C,"endpoint: median tumor weight (est.), dose: 12.5 mg/kg/injection, schedule: Q07DX005 (ip), vehicle: clinical formulation",77 % of control
same,T/C,"endpoint: median tumor weight (est.), dose: 12.5 mg/kg/injection, schedule: Q07DX005 (ip), vehicle: saline with Tween-80",29 % of control and 40 % of control
same,T/C,"endpoint: median tumor weight (est.), dose: 25.0 mg/kg/injection, schedule: Q07DX005 (ip), vehicle: clinical formulation",60 % of control
same,T/C,"endpoint: median tumor weight (est.), dose: 25.0 mg/kg/injection, schedule: Q07DX005 (ip), vehicle: saline with Tween-80",25 % of control and 31 % of control
same,T/C,"endpoint: median tumor weight (est.), dose: 50.0 mg/kg/injection, schedule: Q07DX005 (ip), vehicle: clinical formulation",50 % of control
same,T/C,"endpoint: median tumor weight (est.), dose: 50.0 mg/kg/injection, schedule: Q07DX005 (ip), vehicle: saline with Tween-80",22 % of control and 23 % of control
same,T/C,"endpoint: median tumor weight (est.), dose: 100.0 mg/kg/injection, schedule: Q07DX005 (ip), vehicle: clinical formulation",63 % of control
same,T/C,"endpoint: median tumor weight (est.), dose: 100.0 mg/kg/injection, schedule: Q07DX005 (ip), vehicle: saline with Tween-80",14 % of control and 20 % of control
same,T/C,"endpoint: median tumor weight (est.), dose: 200.0 mg/kg/injection, schedule: Q07DX005 (ip), vehicle: clinical formulation",22 % of control
same,T/C,"endpoint: median tumor weight (est.), dose: 200.0 mg/kg/injection, schedule: Q07DX005 (ip), vehicle: saline with Tween-80",10 % of control and 23 % of control
COc1ccc([C@@]23Oc4cc(OC)cc(OC)c4[C@]2(O)[C@H](O)[C@H](C(=O)N(C)C)[C@H]3c2ccccc2)cc1,T/C,"endpoint: median tumor weight change, dose: 2.5 mg/kg/injection, schedule: Q01DX001 (ip), vehicle: Klucel (hydroxypropylcellulose) (HPC)",212 % of control
same,T/C,"endpoint: median tumor weight change, dose: 5.0 mg/kg/injection, schedule: Q01DX001 (ip), vehicle: Klucel (hydroxypropylcellulose) (HPC)",105 % of control
same,T/C,"endpoint: median tumor weight change, dose: 10.0 mg/kg/injection, schedule: Q01DX001 (ip), vehicle: Klucel (hydroxypropylcellulose) (HPC)",72 % of control
CCCCC(=O)OCC(=O)[C@]1(O)Cc2c(O)c3c(c(O)c2[C@@H](OC2CC(NC(=O)C(F)(F)F)C(O)C(C)O2)C1)C(=O)c1c(OC)cccc1C3=O (stereo not given in full),T/C,"endpoint: median tumor weight (est.), dose: 8.0 mg/kg/injection, schedule: Q07DX005 (ip), vehicle: distilled water + Tween-80",77 % of control
same,T/C,"endpoint: median tumor weight (est.), dose: 16.0 mg/kg/injection, schedule: Q07DX005 (ip), vehicle: distilled water + Tween-80",86 % of control
same,T/C,"endpoint: median tumor weight (est.), dose: 32.0 mg/kg/injection, schedule: Q07DX005 (ip), vehicle: distilled water + Tween-80",58 % of control
same,T/C,"endpoint: median tumor weight (est.), dose: 44.0 mg/kg/injection, schedule: Q07DX004 (ip), vehicle: clinical formulation",51 % of control
same,T/C,"endpoint: median tumor weight (est.), dose: 64.0 mg/kg/injection, schedule: Q07DX005 (ip), vehicle: distilled water + Tween-80",18 % of control
same,T/C,"endpoint: median tumor weight (est.), dose: 67.0 mg/kg/injection, schedule: Q07DX004 (ip), vehicle: clinical formulation",32 % of control
same,T/C,"endpoint: median tumor weight (est.), dose: 100.0 mg/kg/injection, schedule: Q07DX004 (ip), vehicle: clinical formulation",10 % of control
same,T/C,"endpoint: median tumor weight (est.), dose: 128.0 mg/kg/injection, schedule: Q07DX005 (ip), vehicle: distilled water + Tween-80",2 % of control
same,T/C,"endpoint: median tumor weight (est.), dose: 150.0 mg/kg/injection, schedule: Q07DX004 (ip), vehicle: clinical formulation",3 % of control
same,T/C,"endpoint: median tumor weight change, dose: 90.0 mg/kg/injection, schedule: Q01DX001 (ip), vehicle: clinical formulation",45 % of control
COC(=O)C(CSC(c1ccccc1)(c1ccccc1)c1ccccc1)NC(=O)C(CC(N)=O)NC(=O)OCc1ccccc1 (stereo not drawn) (Cbz-Asn-Cys(Trt)-OMe; configuration not given here),T/C,"endpoint: median tumor weight change, dose: 125.0 mg/kg/injection, schedule: Q01DX001 (ip), vehicle: distilled water + Tween-80",101 % of control and 116 % of control
same,T/C,"endpoint: median tumor weight change, dose: 500.0 mg/kg/injection, schedule: Q01DX001 (ip), vehicle: distilled water + Tween-80",50 % of control
same,T/C,"endpoint: median tumor weight change, dose: 2000.0 mg/kg/injection, schedule: Q01DX001 (ip), vehicle: distilled water + Tween-80",40 % of control and 57 % of control
S=C(Nc1ccc(Cl)c(Cl)c1)N1c2ccccc2-n2cccc2C1c1cccnc1 (stereo not given),T/C,"endpoint: median tumor weight change, dose: 250.0 mg/kg/injection, schedule: Q01DX001 (ip), vehicle: Klucel (hydroxypropylcellulose) (HPC)",48 % of control and 67 % of control
same,T/C,"endpoint: median tumor weight change, dose: 500.0 mg/kg/injection, schedule: Q01DX001 (ip), vehicle: Klucel (hydroxypropylcellulose) (HPC)",49 % of control and 57 % of control
same,T/C,"endpoint: median tumor weight change, dose: 1000.0 mg/kg/injection, schedule: Q01DX001 (ip), vehicle: Klucel (hydroxypropylcellulose) (HPC)",50 % of control and 70 % of control
same,T/C,"endpoint: median tumor weight change, dose: 2000.0 mg/kg/injection, schedule: Q01DX001 (ip), vehicle: Klucel (hydroxypropylcellulose) (HPC)",-11 % of control
CN=C(N)N/N=C(\C)c1ccc2c(c1)Cc1ccccc1-2,T/C,[1],60 % of control
same,T/C,[2],55 % of control
COCCCNC1=C(C#N)C(=O)NC(c2cccc([N+](=O)[O-])c2)S1 (stereo not given),T/C,"endpoint: median tumor weight change, dose: 1000.0 mg/kg/injection, schedule: Q01DX001 (ip), vehicle: saline with Tween-80",95 % of control and 110 % of control
same,T/C,"endpoint: median tumor weight change, dose: 2000.0 mg/kg/injection, schedule: Q01DX001 (ip), vehicle: saline with Tween-80",79 % of control
C/C(=N\N=C(/[Se])N1CC2CCC(CC2)C1)c1ccccn1,T/C,"endpoint: median tumor weight change, dose: 8.0 mg/kg/injection, schedule: Q01DX001 (ip), vehicle: Klucel (hydroxypropylcellulose) (HPC)",86 % of control
same,T/C,"endpoint: median tumor weight change, dose: 15.62 mg/kg/injection, schedule: Q01DX001 (ip), vehicle: Klucel (hydroxypropylcellulose) (HPC)",114 % of control
same,T/C,"endpoint: median tumor weight change, dose: 15.62 mg/kg/injection, schedule: Q01DX001 (ip), vehicle: saline with Tween-80",109 % of control
same,T/C,"endpoint: median tumor weight change, dose: 16.0 mg/kg/injection, schedule: Q01DX001 (ip), vehicle: Klucel (hydroxypropylcellulose) (HPC)",27 % of control
same,T/C,"endpoint: median tumor weight change, dose: 31.0 mg/kg/injection, schedule: Q01DX001 (ip), vehicle: Klucel (hydroxypropylcellulose) (HPC)",55 % of control
same,T/C,"endpoint: median tumor weight change, dose: 31.25 mg/kg/injection, schedule: Q01DX001 (ip), vehicle: saline with Tween-80",87 % of control
same,T/C,"endpoint: median tumor weight change, dose: 62.0 mg/kg/injection, schedule: Q01DX001 (ip), vehicle: Klucel (hydroxypropylcellulose) (HPC)",18 % of control
same,T/C,"endpoint: median tumor weight change, dose: 62.5 mg/kg/injection, schedule: Q01DX001 (ip), vehicle: Klucel (hydroxypropylcellulose) (HPC)",122 % of control
same,T/C,[3],65 % of control
same,T/C,"endpoint: median tumor weight change, dose: 125.0 mg/kg/injection, schedule: Q01DX001 (ip), vehicle: Klucel (hydroxypropylcellulose) (HPC)",111 % of control
same,T/C,[1],59 % of control
Cc1cc(N(CCOS(C)(=O)=O)CCOS(C)(=O)=O)ccc1C=Nc1ccc(-c2nc(Cc3ccccc3)sc2C)cc1,T/C,"endpoint: median tumor weight (est.), dose: 12.5 mg/kg/injection, schedule: Q07DX005 (ip), vehicle: Klucel (hydroxypropylcellulose) (HPC)",18 % of control
same,T/C,"endpoint: median tumor weight (est.), dose: 100.0 mg/kg/injection, schedule: Q07DX005 (ip), vehicle: Klucel (hydroxypropylcellulose) (HPC)",4 % of control and 9 % of control
same,T/C,"endpoint: median tumor weight (est.), dose: 200.0 mg/kg/injection, schedule: Q07DX005 (ip), vehicle: Klucel (hydroxypropylcellulose) (HPC)",10 % of control
COc1cccc2c1C(=O)c1c(O)c3c(c(O)c1C2=O)C[C@@](O)(C(O)CO)C[C@@H]3OC1CC(N)C(O)C(C)O1 (stereo not given in full),T/C,"endpoint: mean tumor weight, dose: 6.0 mg/kg/injection, schedule: Q07DX006 (ip), vehicle: saline",33 % of control
same,T/C,"endpoint: mean tumor weight, dose: 12.0 mg/kg/injection, schedule: Q07DX006 (ip), vehicle: saline",45 % of control
same,T/C,"endpoint: median tumor weight (est.), dose: 3.0 mg/kg/injection, schedule: Q07DX005 (ip), vehicle: saline",77 % of control
same,T/C,"endpoint: median tumor weight (est.), dose: 6.0 mg/kg/injection, schedule: Q07DX005 (ip), vehicle: saline",48 % of control
same,T/C,"endpoint: median tumor weight (est.), dose: 12.0 mg/kg/injection, schedule: Q07DX005 (ip), vehicle: saline",26 % of control
CC(C)[NH-].CC(C)[NH-].[Cl][Pt+2][Cl],T/C,"endpoint: median tumor weight (est.), dose: 3.12 mg/kg/injection, schedule: Q07DX005 (ip), vehicle: dextrose",106 % of control
same,T/C,"endpoint: median tumor weight (est.), dose: 6.25 mg/kg/injection, schedule: Q07DX005 (ip), vehicle: dextrose",80 % of control
same,T/C,"endpoint: median tumor weight (est.), dose: 12.5 mg/kg/injection, schedule: Q07DX005 (ip), vehicle: dextrose",42 % of control
same,T/C,"endpoint: median tumor weight (est.), dose: 25.0 mg/kg/injection, schedule: Q07DX005 (ip), vehicle: dextrose",76 % of control
same,T/C,"endpoint: median tumor weight (est.), dose: 50.0 mg/kg/injection, schedule: Q07DX005 (ip), vehicle: dextrose",27 % of control
same,T/C,"endpoint: median tumor weight (est.), dose: 100.0 mg/kg/injection, schedule: Q07DX005 (ip), vehicle: dextrose",42 % of control
CC(=O)ON(C(C)=O)c1ccc(C(N)=O)cc1,T/C,[3],68 % of control
same,T/C,[1],96 % of control
same,T/C,[2],64 % of control
NC(Cn1ccc(=O)c(O)c1)C(=O)O (stereo not given),T/C,"endpoint: median tumor weight change, dose: 100.0 mg/kg/injection, schedule: Q01DX001 (ip), vehicle: saline",82 % of control
same,T/C,"endpoint: median tumor weight change, dose: 200.0 mg/kg/injection, schedule: Q01DX001 (ip), vehicle: saline",69 % of control
same,T/C,"endpoint: median tumor weight change, dose: 400.0 mg/kg/injection, schedule: Q01DX001 (ip), vehicle: saline",52 % of control
same,T/C,"endpoint: median tumor weight change, dose: 1600.0 mg/kg/injection, schedule: Q01DX001 (ip), vehicle: saline",72 % of control
